According to patent US7629471B2, “Transcriptional factor, process for producing the same and use thereof” (NRL Pharma, Inc., priority 2003, dated 2009):
Several values for one entry are separate records, joined by “and”; a condition that tells them apart may be missing. Equal entries are not always repeated. Where two headings read alike, the source gives them in different places. Marks after values point to notes of the source that are not given here.

Columns and labels:
[1] = cited from earlier work
[2] = tested on: mice starved for a 48-hour period; conditions: trace amount by oral route 2 hours before feed intake; 2-hour intake time; mice starved 48 hours; cited from earlier work
[3] = tested on: arthritis in rats induced by adjuvant injection; conditions: adjuvant injection into footpads; cited from earlier work
[4] = tested on: rodents; conditions: rodents (mice, rats); cited from earlier work
[5] = tested on: animal virus; conditions: without affecting nucleic acid and protein biosynthesis; cited from earlier work
[6] = tested on: Ras farnesylation; conditions: cited from earlier work
[7] = tested on: db/db mice; assay: Urinary sugar excretion in db/db mice: in-feed vs forced oral administration (Table 1); type: in vivo; conditions: for % Reduction of urinary sugar excretion: n = 4, tested in triplicate
[8] = Solubility in water
[9] = tested on: hypertensive rat models; conditions: cited from earlier work
[10] = tested on: Male ICR mice; assay: Effect on serum total cholesterol: in-feed vs forced oral administration (Table 1); type: in vivo; conditions: 1 week, n = 6, tested in triplicate
Excerpt: In contrast, the solubility of Compound-1 in water is as extremely low as about 0.7 g/l; Compounds-1 and -2 are poles apart in terms of solubility in water. […] However, even when both compounds are simply mixed in a mechanical manner into feed in an amount of 0.1% or even when both compounds are given for forced oral administration in the same drug amount calculated from feed intake, there is no reproducibility in their efficacy unlike the case where their acetone solutions are sprayed over feed.

[11] = tested on: ICR male mice; type: in vivo; conditions: added at 0.1% to feed, 1 week; control group 143
Excerpt: Fifty ICR male mice (5 weeks of age) were randomly divided into 5 groups of 10 animals each and housed in polycarbonate cages at 5 animals per cage. […] […] After 1 week, the blood was collected from the heart of each mouse to determine the level of serum total cholesterol by an enzymatic method.

[12] = tested on: C57BL/ksj db/db mice; assay: Effect on genetically obese diabetic mice: urinary sugar excretion (Example 6); type: in vivo
Protocol: A solution of Compound-16 (1 g) in acetone (about 50 ml) was sprinkled over and mixed well with 1 kg of rodent standard feed (CE-2, CLEA Japan, Inc., Japan), followed by air-drying in a chamber. The content of Compound-16 in this feed was about 0.1%. In the same manner, pellet chow samples containing 0.05% to 0.025% of Compound-16 were prepared and used for the experiment. To prepare control feed, the same powder feed was sprinkled with acetone and palletized. Twenty male db/db mice (8 weeks of age after birth) were randomly divided into 4 groups. Each group was housed in a cage for urine collection and fed with the Compound-16-containing feed or the control feed for 21 days. During the housing, the mice were allowed to take feed and water ad libitum and their urine was collected at the intervals indicated in Table 1 to determine urinary sugar excretion by an enzymatic method. The level of urinary sugar excretion was expressed as the mean per animal.

[13] = tested on: rodents; conditions: cited from earlier work
[14] = biological target: T1, aromatase (Homo sapiens, UniProt P11511); conditions: cited from earlier work
T1 sequence (P11511 1-503): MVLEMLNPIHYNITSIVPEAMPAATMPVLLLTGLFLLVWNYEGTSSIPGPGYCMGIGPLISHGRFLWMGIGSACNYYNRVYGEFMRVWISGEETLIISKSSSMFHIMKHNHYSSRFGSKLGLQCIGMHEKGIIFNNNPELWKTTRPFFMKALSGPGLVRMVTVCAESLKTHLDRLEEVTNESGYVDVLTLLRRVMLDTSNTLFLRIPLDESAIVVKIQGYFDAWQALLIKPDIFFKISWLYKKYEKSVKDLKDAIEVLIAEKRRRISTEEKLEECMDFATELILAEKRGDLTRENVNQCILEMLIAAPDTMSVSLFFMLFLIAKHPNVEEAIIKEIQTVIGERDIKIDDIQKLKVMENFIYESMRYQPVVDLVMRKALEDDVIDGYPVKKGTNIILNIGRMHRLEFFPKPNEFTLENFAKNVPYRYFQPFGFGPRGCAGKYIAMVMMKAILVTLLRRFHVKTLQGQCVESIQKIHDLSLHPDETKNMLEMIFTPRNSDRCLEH

[15] = Mechanical mixing into feed, 0.1%
[16] = Spraying of acetone solution over feed, 0.1% in feed

In the case of `CC(C=C[C@]1(C)[C@H](C)C(=O)CC[C@@H]1C)=CCc1c(O)c(Cl)c(C)c(C=O)c1O` [Ascochlorin, 3-[5-[1(R),2(S),6(S)-trimethyl-3-oxocyclohexyl]-3-methyl-2,4-pentadienyl]-2,4-dihydroxy-5-chloro-6-methylbenzaldehyde], the “Absorption from the digestive tract” value ([1]; in vivo, po) is given as “most of them pass through the digestive tract without being absorbed”, the “Anorectic effect (feed intake)” value [2] is given as “half inhibition of feed intake” and the Inflammatory swelling [3] is given as “alleviating inflammatory swelling”. The Serum cholesterol lowering [4] was “effect of lowering serum cholesterol”, the Animal virus growth [5] was “arrests animal virus growth” and the “Inhibition of Ras farnesylation” value [6] was “inhibited Ras farnesylation”.
In the case of `COc1c(Cl)c(C)c(C=O)c(O)c1C/C=C(C)/C=C/[C@@]1(C)[C@H](C)CCC(=O)[C@@H]1C` [Compound-1, 4-O-methylascochlorin], the “% Reduction of urinary sugar excretion” value [7, 15] is given as “No inhibitory effect is observed”, the “Absorption from the digestive tract” value ([1]; orally administered to small animals (rats, mice) in the fasting state) is given as “most of them pass through the digestive tract without being absorbed” and the Solubility in water [8] is given as “about 0.7 g/l”. For the same compound, the “Solubility in water (in words)” value [8] was “substantially insoluble in water”, the “Progression to renal failure” value [9] was “prevent hypertensive rat models from entering renal failure” and the “Decrease in serum cholesterol levels” value ([10]; Forced oral administration, same drug amount calculated from feed intake) was “No decrease in all three”. For the same compound, the “Decrease in serum cholesterol levels” value [10, 15] was “No decrease in all three tests” and the “Decrease in serum cholesterol levels” value [10, 16] was 15.2%-25.1% decrease, P < 0.01.
In the case of `CC(C=CC1(C)C(C)CCC(=O)C1C)=CCc1c(O)c(C=O)c(C)c(Cl)c1OCC(=O)O` (centres unmarked) [Compound-2, 4-O-carboxymethylascochlorin], the Toxic death ([7]; Forced oral administration, db/db mice, deaths/animals in first, second, third test) is reported as 2/4 in the first test and 1/4 in the second test and 1/4 in the third test, the “% Reduction of urinary sugar excretion” value ([7]; Forced oral administration) is reported as “Not effective” and the Body weight gain ([7]; Mechanical mixing into feed, db/db mice) is reported as “body weight gain is inhibited”. For the same compound, the “Amount dissolved in water” value ([8]; in the small intestine (pH 7.2 to 7.4)) was at least 6% and the “Decrease in serum cholesterol levels” value [10, 16] was 17.5%-22.7% decrease, P < 0.01.
With `CC(/C=C/[C@@]1(C)[C@H](C)CCC(=O)[C@@H]1C)=C\Cc1c(O)c(Cl)c(C)c(C=NCC(N)=O)c1O` [Compound-13] the Serum total cholesterol [11] was 112** mg/dl.
With `CC(=O)N[C@@H](CCCCN=Cc1c(C)c(Cl)c(O)c(C/C=C(C)/C=C/[C@@]2(C)[C@H](C)CCC(=O)[C@@H]2C)c1O)C(=O)O` [Compound-16] the “Level of urinary sugar excretion” value ([12]; 0.025% in feed, 0 days (24 h urine beginning 1 day before initiation, baseline)) was 890 mg/mouse/day, the “Level of urinary sugar excretion” value ([12]; 0.025% in feed, 1 day) was 600 mg/mouse/day and the “Level of urinary sugar excretion” value ([12]; 0.025% in feed, 3 days) was 452 mg/mouse/day. For the same compound, the “Level of urinary sugar excretion” value ([12]; 0.025% in feed, 7 days) was 175 mg/mouse/day, the “Level of urinary sugar excretion” value ([12]; 0.025% in feed, 14 days) was 201 mg/mouse/day and the “Level of urinary sugar excretion” value ([12]; 0.025% in feed, 21 days) was 134 mg/mouse/day. The “Level of urinary sugar excretion” value ([12]; 0.05% in feed, 0 days (24 h urine beginning 1 day before initiation, baseline)) was 786 mg/mouse/day, the “Level of urinary sugar excretion” value ([12]; 0.05% in feed, 1 day) was 541 mg/mouse/day and the “Level of urinary sugar excretion” value ([12]; 0.05% in feed, 3 days) was 231 mg/mouse/day. For the same compound, the “Level of urinary sugar excretion” value ([12]; 0.05% in feed, 7 days) was 253 mg/mouse/day, the “Level of urinary sugar excretion” value ([12]; 0.05% in feed, 14 days) was 170 mg/mouse/day and the “Level of urinary sugar excretion” value ([12]; 0.05% in feed, 21 days) was 52 mg/mouse/day. The “Level of urinary sugar excretion” value ([12]; 0.1% in feed, 0 days (24 h urine beginning 1 day before initiation, baseline)) was 814 mg/mouse/day, the “Level of urinary sugar excretion” value ([12]; 0.1% in feed, 1 day) was 187 mg/mouse/day and the “Level of urinary sugar excretion” value ([12]; 0.1% in feed, 3 days) was 30 mg/mouse/day. The “Level of urinary sugar excretion” value ([12]; 0.1% in feed, 7 days) was 15 mg/mouse/day, the “Level of urinary sugar excretion” value ([12]; 0.1% in feed, 14 days) was 10 mg/mouse/day and the “Level of urinary sugar excretion” value ([12]; 0.1% in feed, 21 days) was 10 mg/mouse/day.
For `CC(=O)N[C@@H](CCCCN=Cc1c(C)c(Cl)c(OCC(=O)O)c(C/C=C(C)/C=C/[C@@]2(C)[C@H](C)CCC(=O)[C@@H]2C)c1O)C(=O)O` [Compound-19], the Serum total cholesterol [11] was 95** mg/dl.
For `C/C(=C\Cc1c(O)c(Cl)c(C)c(C=O)c1O)CC/C=C(\C)[C@@H]1CC(=O)C(C)(C)O1` [ascofuranone], the “Progression to renal failure” value [9] is given as “prevent hypertensive rat models from entering renal failure”, the Serum cholesterol lowering [4] is given as “serum cholesterol-lowering effect” and the Anticancer effect [13] is given as “anticancer effect”.
In the case of `CC(/C=C/[C@@]1(C)[C@H](C)C=CC(=O)[C@@H]1C)=C\Cc1c(O)c(Cl)c(C)c(C=O)c1O` [cylindrochlorin], the Aromatase inhibition [14] is listed as “strong inhibitory substance” and the Serum cholesterol lowering [4] is listed as “stronger effect of lowering serum cholesterol”.
